Results from the NIST ThermoML archive (doi:10.1021/je9005618).
Numbers after ± are expanded uncertainties.

Test: refractive index (Na D-line) (dimensionless); xn = mol fraction of the nth substance listed
Details: 101 kPa, Liquid

CCn1cc[n+](C)c1.O=S(=O)([O-])C(F)(F)F [1-ethyl-3-methylimidazolium trifluoromethanesulfonate] + CCOC(C)=O
refractive index
Details | 288.15 K | 298.15 K | 308.15 K | 318.15 K | 328.15 K
x1 = 0.04887 | 1.38327 ± 0.0013 | 1.37802 ± 0.0013 | 1.37297 ± 0.0013 | 1.3691 ± 0.0013 | 1.3631 ± 0.0013
x1 = 0.1503 | 1.39622 ± 0.0013 | 1.39151 ± 0.0013 | 1.3881 ± 0.0013 | 1.38476 ± 0.0013 | 1.38129 ± 0.0013
x1 = 0.2004 | 1.40093 ± 0.0013 | 1.39666 ± 0.0013 | 1.3944 ± 0.0013 | 1.3917 ± 0.0013 | 1.38772 ± 0.0013
x1 = 0.2998 | 1.40907 ± 0.0013 | 1.40499 ± 0.0013 | 1.40234 ± 0.0013 | 1.39937 ± 0.0013 | 1.39558 ± 0.0013
x1 = 0.399 | 1.41507 ± 0.0013 | 1.41144 ± 0.0013 | 1.40854 ± 0.0013 | 1.40604 ± 0.0013 | 1.4031 ± 0.0013
x1 = 0.5006 | 1.42038 ± 0.0013 | 1.41682 ± 0.0013 | 1.41415 ± 0.0013 | 1.41137 ± 0.0013 | 1.40906 ± 0.0013
x1 = 0.5977 | 1.42469 ± 0.0013 | 1.42133 ± 0.0013 | 1.4186 ± 0.0013 | 1.41549 ± 0.0013 | 1.41251 ± 0.0013
x1 = 0.6974 | 1.42874 ± 0.0013 | 1.42566 ± 0.0013 | 1.42254 ± 0.0013 | 1.41963 ± 0.0013 | 1.41671 ± 0.0013
x1 = 0.7962 | 1.43118 ± 0.0013 | 1.42823 ± 0.0013 | 1.42528 ± 0.0013 | 1.42239 ± 0.0013 | 1.41954 ± 0.0013
x1 = 0.8474 | 1.43242 ± 0.0013 | 1.4295 ± 0.0013 | 1.42662 ± 0.0013 | 1.42376 ± 0.0013 | 1.42094 ± 0.0013
x1 = 0.9011 | 1.43367 ± 0.0013 | 1.43075 ± 0.0013 | 1.42792 ± 0.0013 | 1.42471 ± 0.0013 | 1.42195 ± 0.0013
x1 = 0.9491 | 1.43467 ± 0.0013 | 1.43182 ± 0.0013 | 1.42903 ± 0.0013 | 1.42624 ± 0.0013 | 1.42352 ± 0.0013
